In patent US9249110B2, “Substituted quinoxalines as B-raf kinase inhibitors” (NEUPHARMA, INC., priority 2011, dated 2016):

Tests used:
A375 cells = assay: Inhibition of cancer cell growth, MTT assay, A375 cells; type: cell-based; details: Homo sapiens, A-375, 72 h compound exposure
Method: (§1) Inhibition of cell growth by compounds was measured using MTT assay (Mosmann, T., Journal of Immunological Methods, 1983, 65, 55-63). Tumor cell lines were purchased from ATCC (American Type Culture Collection, Manassas, Va.). All cell lines were maintained in RPMI 1640 (Hyclone) supplemented with 10% fetal bovine serum (FBS, Hyclone), glutamine (2 mM, Hyclone), and antibiotics (penicillin 100 U/mL and streptomycin 50 μg/mL) at 37° C. in a humidified atmosphere of 5% CO2 in air. Taxol (as a positive control, Sigma) and compounds were dissolved in DMSO (Sigma), and the final concentration of DMSO in the medium was 1%. Tumor cells were plated in 96-well plates at densities of about 4000 cells/well of a 96-well plate and allowed to adhere/grow for 24 h. They were then treated with various concentrations of drug for 72 h. 3-(4,5-Dimethylthiazol-2-yl)-2,5-diphenyltetrazolium bromide (MTT, Sigma) was used to determine the number of viable cells at the time of compound addition and the number of cells remaining after 72 h compound exposure. The number of cells remaining after 72 h was compared to the number of viable cells at the time of compound addition by measuring the absorbance at 570 nm, allowing for the calculation of growth inhibition.
(§2) All concentrations of compounds were tested in triplicate and controls were averaged over 4 wells. IC50 was calculated by plotting the concentration of compound vs the percentage of inhibition in treated wells using GraphPad Prism 5. […] The scale utilized in Table 4 is as follows: +++ less than 1000 nM, ++ between 1000 and 5000 nM, and + greater than 5000 nM.

BRAF V600E = target: T1, BRAF V600E (Homo sapiens, UniProt P15056, V600E); assay: Z′-LYTE kinase inhibition assay against BRAF V600E (Invitrogen); type: biochemical; details: 1 μM compound, Z′-LYTE method
T1 construct: purchased Invitrogen
T1 sequence (P15056 whole entry V600E): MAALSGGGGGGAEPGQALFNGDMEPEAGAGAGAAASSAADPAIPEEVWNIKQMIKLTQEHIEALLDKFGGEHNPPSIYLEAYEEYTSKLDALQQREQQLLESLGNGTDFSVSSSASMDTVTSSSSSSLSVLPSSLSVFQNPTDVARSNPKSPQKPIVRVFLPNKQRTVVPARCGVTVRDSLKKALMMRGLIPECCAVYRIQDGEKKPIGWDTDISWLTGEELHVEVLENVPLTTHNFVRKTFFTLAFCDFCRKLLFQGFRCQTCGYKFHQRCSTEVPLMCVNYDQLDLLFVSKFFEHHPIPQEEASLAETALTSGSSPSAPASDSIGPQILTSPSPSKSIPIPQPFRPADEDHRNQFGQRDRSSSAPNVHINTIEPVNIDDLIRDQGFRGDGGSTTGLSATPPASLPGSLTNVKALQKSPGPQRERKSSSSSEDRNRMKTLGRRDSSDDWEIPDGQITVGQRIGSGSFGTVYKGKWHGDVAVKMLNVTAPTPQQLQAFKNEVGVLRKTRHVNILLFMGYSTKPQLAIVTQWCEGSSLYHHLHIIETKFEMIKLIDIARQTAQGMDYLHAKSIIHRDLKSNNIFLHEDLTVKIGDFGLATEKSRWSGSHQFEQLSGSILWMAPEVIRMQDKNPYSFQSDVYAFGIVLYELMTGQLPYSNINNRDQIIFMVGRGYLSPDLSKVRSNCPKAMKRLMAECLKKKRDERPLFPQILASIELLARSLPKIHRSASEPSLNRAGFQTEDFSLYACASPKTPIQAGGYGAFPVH
Method: (§3) Inhibitory activities of compounds against BRAF or BRAF V600E were measured by Invitrogen using Z′-LYTE® Method as briefly described in the following.
(§4) 4× Test compounds are dissolved in 1% DMSO. […] ATP solutions are diluted to a 4×ATP working concentration in Kinase Buffer (50 mM HEPES pH 7.5, 0.01% BRIJ-35, 10 mM MgCl2, 1 mM EGTA).
(§5) Reaction starts by 30-second shaking of mixture consisting of 2.5 μL4× test compound, […] and 2.5 μL 4×ATP Solution on Bar-coded Corning, low volume NBS, black 384-well plate (Corning Cat. #3676). Then the mixture is incubated for 60-minute at room temperature for the kinase reaction, followed by addition of 5 μL of a 1:1024 dilution of development reagent A and 30-second plate shake. The mixture is then incubated for another 60-minute at room temperature for development reaction. Finally fluorescence is read by plate reader.

A549 cells = assay: Inhibition of cancer cell growth, MTT assay, A549 cells; type: cell-based; details: Homo sapiens, 72 h compound exposure
Method: as §1, §2

BRAF = target: T2, BRAF (Homo sapiens, UniProt P15056); assay: Z′-LYTE kinase inhibition assay against BRAF (Invitrogen); type: biochemical; details: 1 μM compound, Z′-LYTE method
T2 construct: purchased Invitrogen
T2 sequence (P15056 whole entry): as the sequence (P15056 whole entry V600E) above, with E600V counted along it
Method: as §3, §4, §5

KDR (VEGFR2) = target: T3, KDR (VEGFR2) (Homo sapiens, UniProt P35968); assay: Z′-LYTE kinase inhibition assay against KDR (Invitrogen); type: biochemical; details: 1 μM compound, Z′-LYTE method
T3 construct: purchased Invitrogen
T3 sequence (P35968 20-1356): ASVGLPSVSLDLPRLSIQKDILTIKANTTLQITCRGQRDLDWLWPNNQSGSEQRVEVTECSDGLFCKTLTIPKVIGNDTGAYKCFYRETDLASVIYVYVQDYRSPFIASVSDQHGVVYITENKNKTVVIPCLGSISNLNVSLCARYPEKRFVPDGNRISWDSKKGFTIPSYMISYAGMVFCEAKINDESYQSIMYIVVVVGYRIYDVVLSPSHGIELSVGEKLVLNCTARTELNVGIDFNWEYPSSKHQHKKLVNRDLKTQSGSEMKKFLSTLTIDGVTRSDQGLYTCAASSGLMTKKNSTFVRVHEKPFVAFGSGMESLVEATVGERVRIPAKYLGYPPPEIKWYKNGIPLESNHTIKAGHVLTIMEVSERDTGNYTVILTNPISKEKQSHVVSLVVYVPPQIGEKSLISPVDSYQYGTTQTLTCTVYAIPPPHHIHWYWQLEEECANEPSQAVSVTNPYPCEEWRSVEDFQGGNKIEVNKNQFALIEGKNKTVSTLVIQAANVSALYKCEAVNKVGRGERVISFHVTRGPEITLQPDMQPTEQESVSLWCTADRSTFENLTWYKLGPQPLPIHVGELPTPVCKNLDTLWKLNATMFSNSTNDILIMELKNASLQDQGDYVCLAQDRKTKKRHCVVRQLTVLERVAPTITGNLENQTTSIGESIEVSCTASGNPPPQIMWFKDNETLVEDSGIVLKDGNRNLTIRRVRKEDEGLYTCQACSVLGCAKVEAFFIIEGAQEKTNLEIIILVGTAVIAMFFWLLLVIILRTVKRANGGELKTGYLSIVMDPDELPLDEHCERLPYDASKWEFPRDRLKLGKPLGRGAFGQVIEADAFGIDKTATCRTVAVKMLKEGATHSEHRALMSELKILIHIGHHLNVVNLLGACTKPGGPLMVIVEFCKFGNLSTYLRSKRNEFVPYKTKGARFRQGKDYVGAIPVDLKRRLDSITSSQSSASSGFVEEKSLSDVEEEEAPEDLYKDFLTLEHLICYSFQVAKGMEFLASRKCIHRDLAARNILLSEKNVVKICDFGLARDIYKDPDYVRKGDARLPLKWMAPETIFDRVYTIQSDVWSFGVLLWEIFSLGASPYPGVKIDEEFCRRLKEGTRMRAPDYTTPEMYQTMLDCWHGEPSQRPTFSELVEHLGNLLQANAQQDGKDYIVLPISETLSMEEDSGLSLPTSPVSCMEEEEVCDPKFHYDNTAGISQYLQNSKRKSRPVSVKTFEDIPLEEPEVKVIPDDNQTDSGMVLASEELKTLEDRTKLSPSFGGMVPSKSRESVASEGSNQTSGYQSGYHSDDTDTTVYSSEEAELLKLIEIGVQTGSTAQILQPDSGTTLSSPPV
Method: Inhibitory activities of compounds against KDR (VEGFR2) were also measured by Invitrogen using Z′-LYTE® Method as described above with the following modification. The 2×KDR (VEGFR2)/Tyr 01 mixture is prepared in 50 mM HEPES pH 7.5, 0.01% BRIJ-35, 10 mM MgCl2, 1 mM EGTA. The final 10 μL Kinase Reaction consists of 0.5-11.7 ng KDR (VEGFR2) and 2 μM Tyr 01 in 50 mM HEPES pH 7.5, 0.01% BRIJ-35, 10 mM MgCl2, 1 mM EGTA. After the 1 hour Kinase Reaction incubation, 5 μL of a 1:256 dilution of Development Reagent B is added. […] The scale utilized in Table 3 is as follows: ++ more than 70% inhibition and + less than 70% inhibition.

| Structure (SMILES) | IC50 (A375 cells) [µM] | inhibition at 1 µM (BRAF V600E) [%] | IC50 (A549 cells) [µM] | inhibition at 1 µM (BRAF) [%] | inhibition at 1 µM (KDR (VEGFR2)) [%] |
| --- | --- | --- | --- | --- | --- |
| O=C(Nc1cccc(C(F)(F)F)c1)Nc1ccc(F)c(C(=O)c2ccc3nccnc3c2)c1F [Compound C06, 1-(2,4-difluoro-3-(quinoxaline-6-carbonyl)phenyl)-3-(3-(trifluoromethyl)phenyl)urea] | > 5 | 70 to 89 | > 5 |  | < 70 |
| O=C(Nc1cccc(F)c1)Nc1ccc(F)c(C(=O)c2ccc3nccnc3c2)c1F [Compound C07, 1-(2,4-difluoro-3-(quinoxaline-6-carbonyl)phenyl)-3-(3-fluorophenyl)urea] | > 5 | 70 to 89 | 1 to 5 |  | < 70 |
| O=C(Nc1ccc(F)c(C(=O)c2ccc3nccnc3c2)c1F)c1cccc(F)c1 [Compound C09, N-(2,4-difluoro-3-(quinoxaline-6-carbonyl)phenyl)-3-fluorobenzamide] | > 5 | 70 to 89 | > 5 |  |  |
| O=C(Nc1ccc(F)c(C(=O)c2ccc3nccnc3c2)c1F)c1cccc(C(F)(F)F)c1 [Compound C10, N-(2,4-difluoro-3-(quinoxaline-6-carbonyl)phenyl)-3-(trifluoromethyl)benzamide] | > 5 | 70 to 89 | > 5 |  | > 70 |

The next lines start with the values.

| IC50 (A375 cells) [µM] | inhibition at 1 µM (BRAF V600E) [%] | IC50 (A549 cells) [µM] | inhibition at 1 µM (BRAF) [%] | inhibition at 1 µM (KDR (VEGFR2)) [%] | Structure (SMILES) |
| --- | --- | --- | --- | --- | --- |
| < 1 | > 89 | < 1 | 70 to 89 |  | CCCS(=O)(=O)Nc1ccc(F)c(C(=O)c2ccc3nccnc3c2)c1F [Compound C01, N-(2,4-difluoro-3-(quinoxaline-6-carbonyl)phenyl)propane-1-sulfonamide] |
| < 1 | > 89 | < 1 | 70 to 89 |  | CCCS(=O)(=O)Nc1ccc(F)c(C(=O)c2ccc3ncc(-c4ccc(Cl)cc4)nc3c2)c1F [Compound C02, N-(3-(3-(4-chlorophenyl)quinoxaline-6-carbonyl)-2,4-difluorophenyl)propane-1-sulfonamide] |
| 1 to 5 | > 89 | 1 to 5 | 70 to 89 |  | CCCS(=O)(=O)Nc1ccc(F)c(C(=O)c2ccc3ncc(OC)nc3c2)c1F [Compound C03, N-(2,4-difluoro-3-(3-methoxyquinoxaline-6-carbonyl)phenyl)propane-1-sulfonamide] |
| < 1 | > 89 | < 1 | 70 to 89 |  | CCCS(=O)(=O)Nc1ccc(F)c(C(=O)c2ccc3ncc(C#N)nc3c2)c1F [Compound C04, N-(3-(3-cyanoquinoxaline-6-carbonyl)-2,4-difluorophenyl)propane-1-sulfonamide] |
| 1 to 5 |  |  |  |  | CCCS(=O)(=O)Nc1ccc(F)c(C(=O)c2ccc3ncc(N4CCOCC4)nc3c2)c1F [Compound C05, N-(2,4-difluoro-3-(3-morpholinoquinoxaline-6-carbonyl)phenyl)propane-1-sulfonamide] |
| 1 to 5 | < 70 | > 5 |  | < 70 | O=C(Nc1ccc(Cl)c(C(F)(F)F)c1)Nc1ccc(F)c(C(=O)c2ccc3nccnc3c2)c1F [Compound C08, 1-(4-chloro-3-(trifluoromethyl)phenyl)-3-(2,4-difluoro-3-(quinoxaline-6-carbonyl)phenyl)urea] |
